Consider 13 molecules from ChEMBL document CHEMBL1131817, “Structure-based design of irreversible, tripeptidyl human rhinovirus 3C protease inhibitors containing N-methyl amino acids” (Bioorg Med Chem Lett, 1999).

Assay [1] addresses T1, Human rhinovirus A protease (Human rhinovirus sp.) (UniProt Q4U254).
T1 sequence (whole entry): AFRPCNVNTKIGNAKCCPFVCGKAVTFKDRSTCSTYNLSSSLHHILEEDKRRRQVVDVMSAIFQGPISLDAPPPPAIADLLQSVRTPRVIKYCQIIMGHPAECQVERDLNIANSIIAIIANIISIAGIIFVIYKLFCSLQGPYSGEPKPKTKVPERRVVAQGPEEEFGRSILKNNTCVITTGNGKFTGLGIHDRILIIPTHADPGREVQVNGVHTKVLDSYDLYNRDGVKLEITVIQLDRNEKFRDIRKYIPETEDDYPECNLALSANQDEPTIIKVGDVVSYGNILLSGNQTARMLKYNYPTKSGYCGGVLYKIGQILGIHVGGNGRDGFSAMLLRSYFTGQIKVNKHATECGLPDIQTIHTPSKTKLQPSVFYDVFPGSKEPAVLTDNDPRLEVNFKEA
Briefly: Inhibitory activity against Human RhinoVirus serotype-14 3C Protease. It is filed as functional. The settings on record: rhinovirus B14.

Assay [2] relates to Human rhinovirus sp. Briefly: In vitro antiviral activity against HRV serotype-14. The assay is classed as functional, organism-based.
Assay [3] has as its system Human rhinovirus sp. Briefly: Inhibitory activity against Human RhinoVirus serotype-14 3C Protease; NI means No inhibition to 50 uM. The assay is classed as functional, organism-based.

`CCOC(=O)/C=C/[C@H](CCC(N)=O)NC(=O)[C@H](Cc1ccccc1)N(C)C(=O)[C@H](CSc1ccccc1)NC(=O)SC1CCCC1`: the k obs / 1 in assay [1] turned out to be 36800 M⁻¹ s⁻¹. The EC50 – broadly, the concentration that produces a half-maximal response – in the assay on Human rhinovirus sp. [2] turned out to be 540 nM.

Molecule `CCOC(=O)/C=C/[C@H](CCC(N)=O)NC(=O)[C@H](Cc1ccccc1)NC(=O)[C@H](CC(C)C)NC(=O)OCc1ccccc1` came in with a k obs / 1 in assay [1] of 25000 M⁻¹ s⁻¹. The molecule further gave an EC50 in the assay with Human rhinovirus sp. [2] of 540 nM.

Regarding `CCOC(=O)/C=C/[C@H](CCC(N)=O)NC(=O)[C@H](Cc1ccc(F)cc1)N(C)C(=O)[C@H](CC(C)C)NC(=O)c1cc(C)on1`, the k obs / 1 in assay [1] came out at 59300 M⁻¹ s⁻¹. The molecule also yielded a concentration for a half-maximal effect (EC50) with Human rhinovirus sp. [2] of 400 nM.

Regarding `CCOC(=O)/C=C/[C@H](CCC(N)=O)NC(=O)[C@H](Cc1ccccc1)N(C)C(=O)[C@@H](NC(=O)SC1CCCC1)C(C)C`, the k obs / 1 in assay [1] is 22500 M⁻¹ s⁻¹. In addition, the midpoint of the response with Human rhinovirus sp. [2], the EC50, lay at 190 nM.

`CCOC(=O)/C=C/[C@H](CCC(N)=O)NC(=O)[C@H](Cc1ccccc1)N(C)C(=O)[C@H](CC(C)C)NC(=O)c1cc(C)on1`: in assay [1], the k obs / 1 was 108000 M⁻¹ s⁻¹. Moreover, the EC50 in the assay on Human rhinovirus sp. [2] was 140 nM.

`CCOC(=O)/C=C/[C@H](C[C@@H]1CCCNC1=O)NC(=O)[C@H](Cc1ccc(F)cc1)N(C)C(=O)[C@H](CC(C)C)NC(=O)c1cc(C)on1`: the k obs / 1 in assay [1] amounted to 610000 M⁻¹ s⁻¹. The molecule further came in with an EC50 in the assay on Human rhinovirus sp. [2] of 30 nM.

`CCOC(=O)/C=C/[C@H](CCC(N)=O)NC(=O)[C@H](Cc1ccccc1)N(C)C(=O)[C@H](CC(C)C)NC(=O)SC1CCCC1` returned a k obs / 1 in assay [1] of 17300 M⁻¹ s⁻¹. For the same molecule, the concentration giving a half-maximal response (EC50) in the assay on Human rhinovirus sp. [2] stood at 320 nM.

As for `CCOC(=O)/C=C/[C@H](CCC(N)=O)NC(=O)[C@H](Cc1ccc(F)cc1)N(C)C(=O)[C@H](Cc1ccc2ccccc2c1)NC(=O)c1cc(C)on1`, the k obs / 1 in assay [1] worked out at 144000 M⁻¹ s⁻¹. In the assay on Human rhinovirus sp. [2], this molecule came in with a concentration for a half-maximal effect (EC50) of 160 nM.

As to `CCOC(=O)/C=C/[C@H](CCC(N)=O)NC(=O)[C@H](Cc1ccccc1)N(C)C(=O)[C@H](CC(C)C)NC(=O)OCc1ccccc1`, in assay [1], the k obs / 1 came to 5300 M⁻¹ s⁻¹. The response with Human rhinovirus sp. [2] was half-maximal at 1000 nM (EC50).

`CCOC(=O)/C=C/[C@H](CCC(N)=O)NC(=O)[C@H](Cc1ccc(F)cc1)N(C)C(=O)[C@H](Cc1c[nH]cn1)NC(=O)c1cc(C)on1` had a k obs / 1 in assay [1] of 66000 M⁻¹ s⁻¹. In the assay on Human rhinovirus sp. [2], this molecule had an EC50 of 1800 nM.

Consider `CCOC(=O)/C=C/[C@H](CCC(N)=O)N(C)C(=O)[C@H](Cc1ccccc1)NC(=O)[C@H](CC(C)C)NC(=O)OCc1ccccc1`, for which, in the assay with Human rhinovirus sp. [3], the “k obs / 1” value was “No inhibition”.

In assay [1], `CCOC(=O)/C=C/[C@H](CCC(N)=O)NC(=O)[C@H](Cc1ccccc1)NC(=O)[C@H](CC(C)C)N(C)C(=O)OCc1ccccc1` registered a k obs / 1 of 100 M⁻¹ s⁻¹.

In assay [1], `CCOC(=O)/C=C/[C@H](CCC(N)=O)NC(=O)[C@H](Cc1ccc(F)cc1)N(C)C(=O)[C@H](Cc1cccc2ccccc12)NC(=O)c1cc(C)on1` came in with a k obs / 1 of 95800 M⁻¹ s⁻¹. This molecule showed an EC50 in the assay on Human rhinovirus sp. [2] of 200 nM.
